In ChEMBL document CHEMBL3508693 (2016):

Key:
[1] = Oral clearance of SPP100 following single oral dose of SPP100 75 mg capsule studied in healthy human; assay type: ADME, organism-based; details: plasma
[2] = % of radioactivity recovered as aliskiren in urine following intravenous administration of [14C] aliskiren hemifumarate at 10 mg.Kg-1 level in rat; assay type: ADME, organism-based, Albino HAN:WIST; details: in vivo
[3] = Bioavailability of aliskiren in receiver rat following duodenal infusion of radioactivity through bile from donor rat treated with single intravenous administration of 10 mg.Kg-1 [14C] aliskiren hemifumarate; assay type: ADME, organism-based, HAN:WIST(SPF); details: in vivo
CYP2A6 = target: T1, CYP2A6 (Homo sapiens, UniProt P11509); assay: Inhibitory activity of 20 uM SPP100 on 39 Pmoles of cDNA-derived CYP2A6 enzyme in microsome prepared from human lymphoblastoid cell line; assay type: ADME, microsomes; design: conc 20 uM, interact cpd conc 3 uM; details: probe coumarine
T1 sequence (P11509 whole entry): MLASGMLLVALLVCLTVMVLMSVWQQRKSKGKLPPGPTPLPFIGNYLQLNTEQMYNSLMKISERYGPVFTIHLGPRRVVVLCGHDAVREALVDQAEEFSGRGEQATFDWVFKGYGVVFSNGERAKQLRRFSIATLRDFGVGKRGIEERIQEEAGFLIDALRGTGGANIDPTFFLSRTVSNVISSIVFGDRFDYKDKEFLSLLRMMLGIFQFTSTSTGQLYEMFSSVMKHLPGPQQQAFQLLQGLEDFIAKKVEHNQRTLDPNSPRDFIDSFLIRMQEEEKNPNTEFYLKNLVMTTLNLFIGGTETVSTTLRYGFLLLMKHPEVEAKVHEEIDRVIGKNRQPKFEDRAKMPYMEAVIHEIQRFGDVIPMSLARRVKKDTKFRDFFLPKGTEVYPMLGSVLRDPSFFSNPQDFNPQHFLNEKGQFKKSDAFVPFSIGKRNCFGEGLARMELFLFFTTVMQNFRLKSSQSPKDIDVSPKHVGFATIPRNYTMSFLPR

[4] = % of radioactivity recovered as aliskiren in urine following oral administration of [14C] aliskiren hemifumarate at 100 mg.Kg-1 level in rat; assay type: ADME, organism-based, Albino HAN:WIST; details: in vivo
[5] = Excretion of radioactivity (48-72h) in urine following single oral dose of 500 mg.Kg-1 [14C] aliskiren hemifumarate in mouse; assay type: ADME, organism-based, TgRasH2; details: in vivo
[6] = Excretion of radioactivity (24-48h) in faeces following single oral dose of 100 mg.Kg-1 [14C] aliskiren hemifumarate in rat; assay type: ADME, organism-based, Albino HAN:WIST, Feces; details: in vivo
[7] = Excretion (24h) of radioactivity in urine following oral administration of [14C] aliskiren hemifumarate at 100 mg.Kg-1 level in rat; assay type: ADME, organism-based, Lister-Hooded; details: in vivo
[8] = Excretion of radioactivity (0-96h) in faeces following single oral dose of 100 mg.Kg-1 [14C] aliskiren hemifumarate in rat; assay type: ADME, organism-based, Albino HAN:WIST, Feces; details: in vivo
[9] = Excretion of radioactivity (72-96h) in faeces following single oral dose of 100 mg.Kg-1 [14C] aliskiren hemifumarate in rat; assay type: ADME, organism-based, Albino HAN:WIST, Feces; details: in vivo
[10] = Excretion of radioactivity (0-72h) in urine following single oral dose of 500 mg.Kg-1 [14C] aliskiren hemifumarate in mouse; assay type: ADME, organism-based, TgRasH2; details: in vivo
[11] = Excretion of radioactivity (72-96h) in faeces following single intravenous dose of 10 mg.Kg-1 [14C] aliskiren hemifumarate in rat; assay type: ADME, organism-based, Albino HAN:WIST, Feces; details: in vivo
[12] = Total excretion (0-72h) of radioactivity in urine, faeces and cage wash following single oral dose of 500 mg.Kg-1 [14C] aliskiren hemifumarate in mouse; assay type: ADME, organism-based, TgRasH2, Urine/Feces; details: in vivo
[13] = Faecal elimination of aliskiren following single intravenous dose of [14C] aliskiren hemifumarate at 10 mg.Kg-1 level in mouse; assay type: ADME, organism-based, TgRasH2, Feces; details: in vivo
[14] = Excretion of radioactivity (0-24h) in faeces following single intravenous dose of 10 mg.Kg-1 [14C] aliskiren hemifumarate in mouse; assay type: ADME, organism-based, TgRasH2, Feces; details: in vivo
[15] = Mean excretion of radioactivity (0-96h) in urine and faeces following single oral dose of 100 mg.Kg-1 [14C] aliskiren hemifumarate in rat; assay type: ADME, organism-based, Albino HAN:WIST, Urine/Feces; details: in vivo
[16] = Concentration of radioactivity in the colon wall following repeated oral administration of [14C] aliskiren hemifumarate at 100 mg.Kg-1 level studied at 2h after 3rd dose in rat; assay type: ADME, organism-based, Albino HAN:WIST; details: in vivo
[17] = Effect of 2 week oral dosing of aliskiren hemifumarate at 100 mg.Kg-1 level on plasma creatinine level in male Callithrix jacchus; assay type: toxicity, organism-based; details: marmoset, 336 h
[18] = Cmin of aliskiren hemifumarate following repeated oral administration of [14C] aliskiren hemifumarate at 100 mg.Kg-1 level studied at steady state during a dosing interval in rat; assay type: ADME, organism-based, Albino HAN:WIST; details: in vivo
[19] = Cmax of aliskiren hemifumarate following 4 week oral dietary dosing of aliskiren hemifumarate at 1000 mg.Kg-1 level in male mouse; assay type: ADME, organism-based; details: CB6F1-TGrasH2, mouse, in vivo
[20] = Cmaxspec of aliskiren hemifumarate following 2 week oral dosing of aliskiren hemifumarate at 10 mg.Kg-1 level studied on […] in male Callithrix jacchus; assay type: ADME, organism-based, Plasma; details: marmoset, in vivo, 336 h
[21] = Cmax of aliskiren hemifumarate following 2 week oral dosing of aliskiren hemifumarate at 50 mg.Kg-1 level studied on day 1 in female Callithrix jacchus; assay type: ADME, organism-based; details: marmoset, plasma
[22] = Tmax of aliskiren hemifumarate following 2 week oral dosing of aliskiren hemifumarate at 50 mg.Kg-1 level studied on day 1 in female Callithrix jacchus; assay type: ADME, organism-based; details: marmoset, plasma
[23] = AUCspec of aliskiren hemifumarate following 2 week oral dosing of aliskiren hemifumarate at 10 mg.Kg-1 level studied on day 1 in male Callithrix jacchus; assay type: ADME, organism-based, Plasma; details: marmoset, in vivo, 336 h
[24] = Apparent terminal half-life (0-168h) of unlabeled aliskiren hemifumarate following single intravenous administration of aliskiren hemifumarate at 1 mg.Kg-1 level in marmoset; assay type: ADME, organism-based, Callithrix jacchus; details: plasma
[25] = Tmax of unlabeled aliskiren hemifumarate following single intravenous dose of aliskiren hemifumarate at 10 mg.Kg-1 level in mouse; assay type: ADME, organism-based; details: TgRasH2, mouse, plasma
[26] = Tmax (0-96h) of unlabeled aliskiren hemifumarate following intravenous administration of aliskiren hemifumarate at 10 mg.Kg-1 level in rat; assay type: ADME, organism-based; details: Albino HAN:WIST, plasma
[27] = Cmax of aliskiren hemifumarate following 2 week oral dosing of aliskiren hemifumarate at 50 mg.Kg-1 level studied on day 1 in male Callithrix jacchus; assay type: ADME, organism-based; details: marmoset, plasma

`COCCCOc1cc(C[C@@H](C[C@H](N)[C@@H](O)C[C@H](C(=O)NCC(C)(C)C(N)=O)C(C)C)C(C)C)ccc1OC` showed a CL/F [1] of 4900 mL/min, a Compound recovery [2] greater than 2% and an F [3] of less than 3%. The inhibition at 20 µM (CYP2A6) was -2.1% and the Compound recovery [4] was “<= 2%”.
`COCCCOc1cc(C[C@@H](C[C@H](N)[C@@H](O)C[C@H](C(=O)NCC([14CH3])([14CH3])C(N)=O)C(C)C)C(C)C)ccc1OC.O=C(O)/C=C/C(=O)O` gave a Radiolabel recovery [5] of 0.34%, a Radiolabel recovery [6] of 0.68% and a Radiolabel recovery [7] of 73%. The Radiolabel recovery [8] was 4.2%, the Radiolabel recovery [9] was 0.17% and the Radiolabel recovery [10] was 1.84%. The Radiolabel recovery [11] was 2.07%, the Radiolabel recovery [12] was 94.44% and the Radiolabel recovery [13] was “OUTCOME = Observed, VALUE = Elimination of aliskiren occurred mainly via the biliary or faecal route”. The Radiolabel recovery [14] was 84.68%, the Radiolabel recovery [15] was 95.1% and the Radiolabel recovery [16] was “OUTCOME = Observed, VALUE = Highest radioactivity concentration was observed”.
For `COCCCOc1cc(C[C@@H](C[C@H](N)[C@@H](O)C[C@H](C(=O)NCC(C)(C)C(N)=O)C(C)C)C(C)C)ccc1OC.COCCCOc1cc(C[C@@H](C[C@H](N)[C@@H](O)C[C@H](C(=O)NCC(C)(C)C(N)=O)C(C)C)C(C)C)ccc1OC.O=C(O)/C=C/C(=O)O` [ALISKIREN FUMARATE], the CREAT_CHANGE_BY [17] was 130%, the “Cmin(ss)” value [18] was 4.54 nM and the Cmax [19] was 879 ng/mL. The Cmax normalised [20] was 0.577 (ug/ml)/(mg/kg), the Cmax [21] was 8830 ng/mL and the Tmax [22] was 60 min. For the same compound, the AUC normalised [23] was 2.2 ((ug.h.ml-1)/(mg/kg), the half-life [24] was 36 h and the Tmax [25] was 4.98 min. It also gave a Tmax [26] of 4.98 min and a Cmax [27] of 6290 ng/mL.
